Key:
Assay type in all cases: in vivo, rat
[1] = test system: ear swelling induced by croton oil; test: Ear edema test; settings: 1 mg/kg topical, 6 hr
Experimental: The test animals were Sprague/Dawley rats weighing approximately 150 grams each. In treatment groups, selected amounts of the test compound were dissolved in acetone containing 5% croton oil and 50 microliters of the solution were applied to the inner surface of the right ear of the rats. A control group was identically treated with vehicle only, i.e. 5% croton oil in acetone. Six hours after croton oil challenge, a constant region of each ear was removed by dissection under anesthesia. Then, 48 hours after steroid treatment, the animals were sacrificed and the thymi and adrenals were removed and weighed. The test results showing the inhibitory effect of topically applied steroids on the ear swelling induced by croton oil are summarized in Table II below.

thymus weight in rats = test: Thymus inhibition testing (subcutaneous administration); settings: for Body weight gain / Thymus / Thymus Inhibition: Table VII, three days
Experimental: Several further studies were undertaken to determine the effects of selected compounds of the invention on thymi weights in rats when the drugs were systemically administered. In each of these studies, male Sprague-Dawley rats were used. […] On the fifth day (48 hours following the last treatment), the animals were sacrificed and the thymi weights were recorded. […] It is evident that the higher the inhibition of thymus activity at a given dose, the more toxic the compound is.

[2] = test system: granulation tissue formation caused by implantation of cotton pellets; test: Granuloma formation test (local cotton pellet granuloma assay)
Experimental: The test compound was dissolved in acetone and aliquots of varying concentrations were injected into cotton pellets. The pellets were dried and then one pellet was implanted beneath the skin of each test rat. Six days later, the animals were sacrificed and the granulation tissue (granuloma) which formed in and around the implanted pellet was removed, dried and weighed. In addition, the thymi and adrenals were removed and weighed.

## CCCC(=O)O[C@]1(C(=O)CO)CC[C@H]2[C@@H]3CCC4=CC(=O)CC[C@]4(C)[C@H]3[C@@H](O)C[C@@]21C [Hydrocortisone 17-butyrate, reference compound]
[1]
  Ear Weight, % Increase: −3.6 ± 3.5 %
  Ear Weight, % Inhibition: 106.0%
  Ear Weight, Inflamed Ear: 50.0 ± 2.3 mg
  Ear Weight, Untreated Ear: 52.0 ± 2.5 mg
Thymus weight in rats; 0.3 mg/kg/day s.c.
  Body weight gain: 17.0 ± 0.8 g
  Thymus: 441 ± 27 mg
  Thymus Inhibition: 6.4%
Thymus weight in rats; 1 mg/kg/day s.c.
  Body weight gain: 11.8 ± 0.8 g
  Thymus: 323 ± 16 mg
  Thymus Inhibition: 31.4%
Thymus weight in rats; 3 mg/kg/day s.c.
  Body weight gain: 7.3 ± 0.5 g
  Thymus: 166 ± 5 mg
  Thymus Inhibition: 64.8%
Thymus weight in rats; 10 mg/kg/day s.c.
  Body weight gain: -5.0 ± 1.1 g
  Thymus: 65 ± 5 mg
  Thymus Inhibition: 86.2%
Thymus weight in rats; Table X, dose required to achieve 40% inhibition of thymi weight, subcutaneous
  TED40: 1.3 mg
Thymus weight in rats; Table X, dose required to achieve 50% inhibition of thymi weight, subcutaneous
  TED50: 2.0 mg
Thymus weight in rats; Table XII, thymus inhibition effect, subcutaneously
  TED40: 1.3 mg/kg
[2]; Table III, 1 mg/pellet
  Body wt. gain: 33.4 ± 1.4 g
  Granulation tissue Dry wt.: 32.2 ± 5.0 mg/100 g body wt.
  Granulation tissue Inhibition: 26.3%
[2]; Table III, 3 mg/pellet
  Body wt. gain: 15.9 ± 1.4 g
  Granulation tissue Dry wt.: 21.6 ± 2.2 mg/100 g body wt.
  Granulation tissue Inhibition: 50.6%
[2]; Table III, 10 mg/pellet
  Body wt. gain: 4.9 ± 1.0 g
  Granulation tissue Dry wt.: 29.2 ± 3.1 mg/100 g body wt.
  Granulation tissue Inhibition: 33.2%
[2]; Table IV, 300 μg/pellet
  Body wt. gain: 26.2 ± 1.7 g
  Granulation tissue Dry wt.: 34.0 ± 5.3 mg
  Granulation tissue Dry wt. Inhibition: 58.1%
  Granulation tissue Wet wt.: 333 ± 21 mg
  Granulation tissue Wet wt. Inhibition: 41.2%
  Thymus wt.: 353 ± 37 mg
  Thymus wt. (Decrease %): (20.7) %
[2]; Table IV, 1000 μg/pellet
  Body wt. gain: 26.2 ± 1.2 g
  Granulation tissue Dry wt.: 35.3 ± 4.2 mg
  Granulation tissue Dry wt. Inhibition: 56.5%
  Granulation tissue Wet wt.: 366 ± 24 mg
  Granulation tissue Wet wt. Inhibition: 35.3%
  Thymus wt.: 99 ± 7 mg
  Thymus wt. (Decrease %): (77.8) %
[2]; Table IV, 3000 μg/pellet
  Body wt. gain: 6.7 ± 2.2 g
  Granulation tissue Dry wt.: 28.0 ± 2.7 mg
  Granulation tissue Dry wt. Inhibition: 65.5%
  Granulation tissue Wet wt.: 329 ± 14 mg
  Granulation tissue Wet wt. Inhibition: 41.9%
  Thymus wt.: 58 ± 5 mg
  Thymus wt. (Decrease %): (87.0) %
[2]; Table IV, 10000 μg/pellet
  Body wt. gain: -2.0 ± 2.4 g
  Granulation tissue Dry wt.: 27.2 ± 2.4 mg
  Granulation tissue Dry wt. Inhibition: 66.5%
  Granulation tissue Wet wt.: 311 ± 7 mg
  Granulation tissue Wet wt. Inhibition: 45.1%
  Thymus wt.: 46 ± 7 mg
  Thymus wt. (Decrease %): (89.7) %
[2]; Table XII, anti-inflammatory effect in cotton pellet granuloma
  ED50: 480 μg/pellet
[2]; dose causing 60% inhibition of granulation tissue weight
  ED60: 1015 μg/pellet

— US6610675B1 (priority 1980, dated 2003)
